The record followed here is patent US11041009B2, “Glucose responsive insulin comprising a tri-valent sugar cluster for treatment of diabetes” (Merck Sharp & Dohme Corp., priority 2017, dated 2021).

For test [1], the target named is T1, Human macrophage mannose receptor 1 (MRC1) (Homo sapiens, UniProt P22897).
T1 sequence (P22897 19-1456): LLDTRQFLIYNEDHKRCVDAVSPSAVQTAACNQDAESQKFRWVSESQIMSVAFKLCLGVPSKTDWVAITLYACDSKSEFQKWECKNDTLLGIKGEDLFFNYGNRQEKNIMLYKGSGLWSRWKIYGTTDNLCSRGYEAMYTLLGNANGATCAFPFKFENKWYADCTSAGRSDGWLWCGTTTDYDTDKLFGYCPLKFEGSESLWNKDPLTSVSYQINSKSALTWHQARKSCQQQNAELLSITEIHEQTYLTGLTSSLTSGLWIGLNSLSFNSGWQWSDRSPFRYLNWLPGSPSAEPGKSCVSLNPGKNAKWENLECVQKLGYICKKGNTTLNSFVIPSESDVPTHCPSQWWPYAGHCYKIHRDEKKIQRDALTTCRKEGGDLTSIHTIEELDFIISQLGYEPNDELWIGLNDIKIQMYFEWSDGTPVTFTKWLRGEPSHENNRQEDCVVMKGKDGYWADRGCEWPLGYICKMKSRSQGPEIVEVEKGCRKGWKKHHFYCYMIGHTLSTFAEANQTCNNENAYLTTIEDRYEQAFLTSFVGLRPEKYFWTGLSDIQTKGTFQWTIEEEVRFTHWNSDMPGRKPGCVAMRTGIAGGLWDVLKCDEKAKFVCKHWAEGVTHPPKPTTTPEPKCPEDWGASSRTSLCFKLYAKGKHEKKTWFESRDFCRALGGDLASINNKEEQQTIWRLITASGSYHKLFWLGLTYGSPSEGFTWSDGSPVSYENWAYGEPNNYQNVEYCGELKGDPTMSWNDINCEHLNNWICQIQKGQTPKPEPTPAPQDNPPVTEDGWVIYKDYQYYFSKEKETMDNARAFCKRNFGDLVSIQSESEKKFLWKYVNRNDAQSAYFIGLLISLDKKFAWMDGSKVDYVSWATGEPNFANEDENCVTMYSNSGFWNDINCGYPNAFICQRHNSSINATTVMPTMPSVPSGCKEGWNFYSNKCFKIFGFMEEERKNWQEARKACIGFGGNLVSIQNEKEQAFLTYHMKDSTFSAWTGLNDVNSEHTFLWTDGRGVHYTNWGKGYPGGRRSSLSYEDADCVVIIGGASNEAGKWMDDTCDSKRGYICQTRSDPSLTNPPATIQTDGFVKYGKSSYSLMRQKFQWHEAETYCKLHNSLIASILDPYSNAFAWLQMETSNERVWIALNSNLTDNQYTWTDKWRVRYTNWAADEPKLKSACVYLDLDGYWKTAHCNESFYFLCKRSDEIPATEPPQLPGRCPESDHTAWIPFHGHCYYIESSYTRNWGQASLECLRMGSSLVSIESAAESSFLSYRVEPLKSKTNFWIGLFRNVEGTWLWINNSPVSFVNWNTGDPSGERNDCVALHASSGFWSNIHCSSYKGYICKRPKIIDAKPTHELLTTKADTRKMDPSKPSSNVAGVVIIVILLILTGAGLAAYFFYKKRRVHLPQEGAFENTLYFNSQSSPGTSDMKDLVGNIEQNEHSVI
Briefly: MRC1 competition binding assay with Eu-labeled mannosylated-BSA (Methods E and F). Particulars: Method F: MRC1 assay in a 384-well plate; read-out: MRC1 Binding IP‡. How it is done: Human macrophage mannose receptor 1 (MRC1) Binding Assays were performed as follows.
The competition binding assay for MRC1 utilized a ligand, mannosylated-BSA labeled with the DELFIA Eu-N1-ITC reagent, as reported in the literature. Assay was performed either in a 96-well plate with 100 μL well volume (Method E) or in a 384-well plate with 25 μL well volume (Method F). […] The antibody was incubated in the plate for 1 hr at room temperature with shaking. The plate was washed with wash buffer 3-5 times followed by addition of MRC1 (2 ng/μl final concentration) in PBS containing 1% stabilizer BSA. The plate was incubated at room temperature with gentle shaking for 1 hr. The plate was washed three times with wash buffer. The IOC molecules in 12.5 μL (or 50 μL depending on plate format) buffer at appropriate concentrations were added followed by 12.5 μL (or 50 μL) Eu-mannosylated-BSA (0.1 nM final concentration) in 50 mM Tris, pH 7.5 containing 100 mM NaCl, 5 mM CaCl2, 1 mM MgCl2 and 0.2% stabilizer BSA. The plate was incubated for 2 hrs at room temperature with shaking followed by washing three times with wash buffer. Perkin Elmer Eu-inducer reagent was added and incubated for 30 min at room temperature prior to detection of the Eu signal (Excitation=340 nm: Emission=615 nm).

Test [2] deals with human insulin receptor type B (IR(B)) (Homo sapiens, UniProt P06213). Briefly: Insulin Receptor Binding Assay, scintillation proximity assay with cell membranes (Method D).
Sequence of human insulin receptor type B (IR(B)) (P06213 28-758 limits assumed): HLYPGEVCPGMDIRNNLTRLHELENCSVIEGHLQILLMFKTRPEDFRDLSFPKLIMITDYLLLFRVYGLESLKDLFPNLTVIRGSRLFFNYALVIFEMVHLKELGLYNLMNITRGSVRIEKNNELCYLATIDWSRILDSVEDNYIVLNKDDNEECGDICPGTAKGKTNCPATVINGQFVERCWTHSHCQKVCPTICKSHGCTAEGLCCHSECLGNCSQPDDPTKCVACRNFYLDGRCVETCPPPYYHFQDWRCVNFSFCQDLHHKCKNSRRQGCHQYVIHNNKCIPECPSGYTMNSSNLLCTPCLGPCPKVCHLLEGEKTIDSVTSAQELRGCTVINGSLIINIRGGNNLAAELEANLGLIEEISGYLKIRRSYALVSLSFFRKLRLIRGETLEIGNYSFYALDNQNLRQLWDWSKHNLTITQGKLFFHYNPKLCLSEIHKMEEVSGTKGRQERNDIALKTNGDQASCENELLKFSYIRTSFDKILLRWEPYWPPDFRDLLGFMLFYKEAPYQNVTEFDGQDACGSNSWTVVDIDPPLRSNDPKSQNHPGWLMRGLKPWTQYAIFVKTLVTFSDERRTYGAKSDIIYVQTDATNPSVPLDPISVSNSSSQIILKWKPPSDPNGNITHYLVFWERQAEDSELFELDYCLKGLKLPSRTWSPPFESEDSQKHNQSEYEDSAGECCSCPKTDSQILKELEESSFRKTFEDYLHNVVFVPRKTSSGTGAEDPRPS
Sequence of human insulin receptor type B (IR(B)) (P06213 763-1382 partner limits assumed): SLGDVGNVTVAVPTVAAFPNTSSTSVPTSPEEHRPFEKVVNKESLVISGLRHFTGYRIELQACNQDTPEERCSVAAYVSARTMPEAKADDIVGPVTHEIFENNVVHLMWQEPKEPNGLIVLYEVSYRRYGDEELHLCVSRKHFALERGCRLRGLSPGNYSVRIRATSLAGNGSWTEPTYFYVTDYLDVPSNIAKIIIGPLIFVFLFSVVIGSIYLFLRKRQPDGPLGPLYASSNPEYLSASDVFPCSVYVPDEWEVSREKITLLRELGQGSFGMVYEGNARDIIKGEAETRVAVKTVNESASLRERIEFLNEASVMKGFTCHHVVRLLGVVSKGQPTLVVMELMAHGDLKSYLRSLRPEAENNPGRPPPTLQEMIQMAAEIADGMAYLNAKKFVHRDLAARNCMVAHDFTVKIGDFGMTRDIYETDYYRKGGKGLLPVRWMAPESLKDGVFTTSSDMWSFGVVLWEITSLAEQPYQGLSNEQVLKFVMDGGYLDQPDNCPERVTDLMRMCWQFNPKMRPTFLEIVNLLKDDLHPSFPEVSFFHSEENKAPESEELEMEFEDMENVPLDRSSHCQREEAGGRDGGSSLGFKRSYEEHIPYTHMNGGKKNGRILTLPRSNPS
The target of a further test is T2, human IR(B) (Homo sapiens, UniProt P06213).
T2 construct: expressed in transfected cells
T2 sequence (P06213 28-758 limits assumed): as the sequence (P06213 28-758 limits assumed) above
T2 sequence (P06213 763-1382 partner limits assumed): as the sequence (P06213 763-1382 partner limits assumed) above
Briefly: Insulin Receptor Phosphorylation Assay (MSD pIR assay; Methods A and B). It counts as cell-based. Particulars: Method B: IR phosphorylation assay, 384-well with automated liquid dispense; CHO cells expressing human IR(B); read-out: IR Activation IP†. The method, then:
Insulin Receptor Phosphorylation Assays were performed as follows.
Cells were harvested and frozen in aliquots for use in the MSD pIR assay. Briefly, the frozen cells were plated in either 96-well (40,000 cells/well, Method A) or 384-well (10,000 cells/well, Method B) clear tissue culture plates and allowed to recover. IOC molecules at the appropriate concentrations were added and the cells incubated for 8 min at 37° C. The media was aspirated and chilled MSD cell lysis buffer was added as per MSD kit instructions. The cells were lysed on ice for 40 min and the lysate then mixed for 10 minutes at room temperature. The lysate was transferred to the MSD kit pIR detection plates. The remainder of the assay was carried out following the MSD kit recommended protocol.

Take `CC[C@H](C)[C@H](NC(=O)CN)C(=O)N[C@H](C(=O)N[C@@H](CCC(=O)O)C(=O)N[C@@H](CCC(N)=O)C(=O)N[C@H]1CSSC[C@@H]2NC(=O)[C@H]([C@@H](C)CC)NC(=O)[C@H](CO)NC(=O)[C@H]([C@@H](C)O)NC(=O)[C@H](CSSC[C@H](NC(=O)[C@H](CC(C)C)NC(=O)[C@H](Cc3c[nH]cn3)NC(=O)[C@H](CCC(N)=O)NC(=O)[C@H](CC(N)=O)NC(=O)[C@@H](NC(=O)[C@H](Cc3ccccc3)NC(=O)CCCCC(=O)N(CC(=O)NCCO[C@@H]3O[C@H](CO)[C@@H](O)[C@H](O)[C@H]3O)CC(=O)N(CCO[C@H]3O[C@H](CO)[C@@H](O)[C@H](O)[C@@H]3O)CCO[C@H]3O[C@H](CO)[C@@H](O)[C@H](O)[C@@H]3O)C(C)C)C(=O)NCC(=O)N[C@@H](CO)C(=O)N[C@@H](Cc3c[nH]cn3)C(=O)N[C@@H](CC(C)C)C(=O)N[C@@H](C(C)C)C(=O)N[C@@H](CCC(=O)O)C(=O)N[C@@H](C)C(=O)N[C@@H](CC(C)C)C(=O)N[C@@H](Cc3ccc(O)cc3)C(=O)N[C@@H](CC(C)C)C(=O)N[C@@H](C(C)C)C(=O)N[C@H](C(=O)NCC(=O)N[C@@H](CCC(=O)O)C(=O)N[C@@H](CCCNC(=N)N)C(=O)NCC(=O)N[C@@H](Cc3ccccc3)C(=O)N[C@@H](Cc3ccccc3)C(=O)N[C@@H](Cc3ccc(O)cc3)C(=O)N[C@H](C(=O)N3CCC[C@H]3C(=O)N[C@@H](CCCCNC(=O)CCCCC(=O)N(CC(=O)NCCO[C@@H]3O[C@H](CO)[C@@H](O)[C@H](O)[C@H]3O)CC(=O)N(CCO[C@H]3O[C@H](CO)[C@@H](O)[C@H](O)[C@@H]3O)CCO[C@H]3O[C@H](CO)[C@@H](O)[C@H](O)[C@@H]3O)C(=O)N[C@H](C(=O)O)[C@@H](C)O)[C@@H](C)O)CSSC[C@@H](C(=O)N[C@@H](CC(N)=O)C(=O)O)NC(=O)[C@H](Cc3ccc(O)cc3)NC(=O)[C@H](CC(N)=O)NC(=O)[C@H](CCC(=O)O)NC(=O)[C@H](CC(C)C)NC(=O)[C@H](CCC(N)=O)NC(=O)[C@H](Cc3ccc(O)cc3)NC(=O)[C@H](CC(C)C)NC(=O)[C@H](CO)NC2=O)NC1=O)C(C)C` [IOC-63]: the IC50 in test [1] is 70.2 nM; in test [2] it was 1.65 nM. Also, the EC50 at human IR(B) was 0.63 nM.
